Measured values published in patent US20250270203A1, “NICOTINIC ACETYLCHOLINE RECEPTOR LIGANDS” (Philip Morris Products S.A., priority 2022, published 2025).
pKi: −log10 of the molar value. Read-outs that look alike come from different tables or passages of the source.

Experiments:
human α7 nAChR = human α7 nAChR (Homo sapiens (Human), UniProt P36544); assay: biochemical; type: binding; conditions: for nAChR subtype preference / selectivity: in words, from Ki at α7, α4β2, α3β4
α4β2 nAChR = α4β2 nAChR (Homo sapiens (Human), UniProt P17787+P43681); assay: nAChR binding affinity, α4β2 subtype
Chain of α4β2 nAChR (P43681 29-627): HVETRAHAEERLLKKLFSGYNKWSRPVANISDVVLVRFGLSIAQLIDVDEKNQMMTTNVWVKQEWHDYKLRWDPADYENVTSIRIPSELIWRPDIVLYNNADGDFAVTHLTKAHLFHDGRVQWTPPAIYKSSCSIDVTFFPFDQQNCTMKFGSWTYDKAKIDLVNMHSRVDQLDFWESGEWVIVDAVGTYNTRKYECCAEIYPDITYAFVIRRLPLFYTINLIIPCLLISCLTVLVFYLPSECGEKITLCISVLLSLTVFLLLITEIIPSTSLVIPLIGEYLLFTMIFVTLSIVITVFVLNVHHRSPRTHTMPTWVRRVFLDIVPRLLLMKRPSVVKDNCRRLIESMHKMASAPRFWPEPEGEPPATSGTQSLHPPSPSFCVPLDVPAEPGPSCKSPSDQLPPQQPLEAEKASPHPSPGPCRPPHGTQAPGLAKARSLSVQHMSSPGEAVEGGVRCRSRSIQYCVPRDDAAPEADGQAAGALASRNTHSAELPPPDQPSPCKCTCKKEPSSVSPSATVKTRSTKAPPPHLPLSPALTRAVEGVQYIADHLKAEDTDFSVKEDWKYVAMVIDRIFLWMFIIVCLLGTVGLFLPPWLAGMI
Chain of α4β2 nAChR (P17787 26-502): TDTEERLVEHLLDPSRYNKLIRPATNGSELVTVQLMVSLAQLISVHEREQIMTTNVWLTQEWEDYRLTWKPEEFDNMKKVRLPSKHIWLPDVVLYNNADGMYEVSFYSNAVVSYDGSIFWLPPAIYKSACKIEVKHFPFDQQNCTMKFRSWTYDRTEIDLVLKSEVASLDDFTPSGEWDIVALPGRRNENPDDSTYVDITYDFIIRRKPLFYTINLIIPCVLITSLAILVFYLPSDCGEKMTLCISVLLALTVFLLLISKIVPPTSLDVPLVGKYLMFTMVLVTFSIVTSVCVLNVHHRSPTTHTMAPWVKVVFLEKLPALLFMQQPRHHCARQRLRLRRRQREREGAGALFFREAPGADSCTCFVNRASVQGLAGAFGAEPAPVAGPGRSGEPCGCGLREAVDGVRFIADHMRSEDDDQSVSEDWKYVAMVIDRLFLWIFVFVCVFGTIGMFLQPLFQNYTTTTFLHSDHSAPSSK

α3β4 nAChR = α3β4 nAChR (Homo sapiens (Human), UniProt P30926+P32297); assay: nAChR binding affinity, α3β4 subtype; conditions: Table 2
Chain of α3β4 nAChR (P32297 32-505): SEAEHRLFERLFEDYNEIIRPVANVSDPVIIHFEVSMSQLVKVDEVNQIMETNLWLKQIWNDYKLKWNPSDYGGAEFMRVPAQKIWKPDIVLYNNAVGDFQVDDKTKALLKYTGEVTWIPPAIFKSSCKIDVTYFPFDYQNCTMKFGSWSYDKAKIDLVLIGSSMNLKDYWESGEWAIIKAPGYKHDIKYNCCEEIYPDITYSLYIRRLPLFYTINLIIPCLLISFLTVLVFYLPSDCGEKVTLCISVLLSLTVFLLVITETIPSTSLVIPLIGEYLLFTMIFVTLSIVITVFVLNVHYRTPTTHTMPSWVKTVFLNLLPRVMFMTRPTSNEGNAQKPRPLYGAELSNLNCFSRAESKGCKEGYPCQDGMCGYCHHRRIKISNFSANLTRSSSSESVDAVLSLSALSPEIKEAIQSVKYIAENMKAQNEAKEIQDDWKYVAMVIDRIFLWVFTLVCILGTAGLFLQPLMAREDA
Chain of α3β4 nAChR (P30926 22-498): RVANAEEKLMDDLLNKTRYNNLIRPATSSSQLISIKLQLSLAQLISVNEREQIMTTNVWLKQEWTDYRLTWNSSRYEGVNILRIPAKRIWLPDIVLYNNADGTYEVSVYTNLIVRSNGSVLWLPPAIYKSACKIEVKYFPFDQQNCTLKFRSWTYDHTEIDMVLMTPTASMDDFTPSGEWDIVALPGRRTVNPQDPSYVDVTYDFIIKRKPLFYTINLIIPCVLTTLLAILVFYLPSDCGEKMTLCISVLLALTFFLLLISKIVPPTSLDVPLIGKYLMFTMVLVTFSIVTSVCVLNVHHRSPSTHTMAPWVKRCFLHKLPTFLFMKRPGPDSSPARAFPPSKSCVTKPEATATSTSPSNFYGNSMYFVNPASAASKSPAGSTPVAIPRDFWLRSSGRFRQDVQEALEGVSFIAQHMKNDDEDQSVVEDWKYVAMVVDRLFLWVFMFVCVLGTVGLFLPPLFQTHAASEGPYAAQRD

[1] = system: citric acid-induced cough in guinea pigs; assay: Citric acid-induced cough in guinea pigs, dry powder insufflation, nebulisation, oral and intraperitoneal administration (Example 28); type: in vivo, guinea pig
Protocol: The mean concentration of citric acid was 1156.0±111.8 μg/L for both routes.
Regarding oral administration, the duration between compound administration and start of citric acid challenge was 30 minutes. The data was compared to atmospheric air (control).
Regarding intraperitoneal administration, compounds were administered approximately 10-15 mins before the cough challenge (citric acid inhalation challenge). Test compounds were dosed at between 1-30 mg/kg (as described herein for each experiment) while the positive control (codeine) was dosed at 30 mg/kg, in each case using a dosing volume of 10 ml/kg, by a single intraperitoneal injection.

[2] = system: citric acid-induced cough in guinea pigs; assay: Citric acid-induced cough in guinea pigs, intraperitoneal injection (Example 27)
Protocol: As depicted in FIG. 1B and FIG. 1C, cough induction is conducted by placing guinea pigs into a whole body plethysmograph (WBP) equipped with a Aeroneb™ vibrating mesh nebulizer, and including pressure transducers and detection equipment (EMKA technologies). A primary microphone is supplied (EMKA Technologies) for acoustic confirmation of cough frequency in the form of a digital trace using the EMKA software.
A secondary microphone (T1 True Wireless Earphone, QCY®) also is placed in the chamber and connected to a smartphone via Bluetooth to enable the observers to hear the audible sounds during the test. A bias flow rate of 2 L/min is used to continuously draw either atmospheric air (during the fresh air period) or aerosolized citric acid from the nebulizer into the WBP and expel it out through an exhaust pipe. Chamber pressure in the WBP is set to be between −10 to −30 Pa relative to ambient pressure.
Prior to the citric acid challenge, the guinea pigs are administered (intraperitoneal injection) with vehicle control, positive control or test compound (where applicable) with different dosage (Table 3) and placed individually into the WBP for at least 5 minutes in order to habituate.
The procedure was as follows: Injection→guinea pig in box having citric acid for 10 mins (counting the cough)→box then fill with air for 5 mins (counting the cough)→guinea pig moved to recovery cage.
Appropriate concentration of citric acid is used to generate aerosol and deliver to WBP for 10 minutes with constant recording of pressure measurements. The mean concentration of citric acid was 1283.1±137.2 μg/L. Upon completion of citric acid challenge, the guinea pig is allowed to recover and continue recording of cough counts for another 5 minutes. Subsequently, the guinea pigs are closely monitored in recovery cage for full recovery from the challenge and that no adverse events were present before returning the animals to its home cage. Cough counts (CCnt) are recorded over a period of at least 10 mins, starting from citric acid stimulation and cough incubation period (CIP) are defined as the time it takes to cough for the first time after citric acid stimulation.
The data were analysed using Oneway ANOVA (* p<0.05, ** p<0.01, *** p<0.001, **** p<0.0001) when compared to saline control, and each column represents Mean±SEM.

[3] = Table 1, [125I] α-Bungarotoxin, Cheng-Prusoff, read-out: α7 Ki

Chain of human α7 nAChR (P36544 23-502 limits assumed): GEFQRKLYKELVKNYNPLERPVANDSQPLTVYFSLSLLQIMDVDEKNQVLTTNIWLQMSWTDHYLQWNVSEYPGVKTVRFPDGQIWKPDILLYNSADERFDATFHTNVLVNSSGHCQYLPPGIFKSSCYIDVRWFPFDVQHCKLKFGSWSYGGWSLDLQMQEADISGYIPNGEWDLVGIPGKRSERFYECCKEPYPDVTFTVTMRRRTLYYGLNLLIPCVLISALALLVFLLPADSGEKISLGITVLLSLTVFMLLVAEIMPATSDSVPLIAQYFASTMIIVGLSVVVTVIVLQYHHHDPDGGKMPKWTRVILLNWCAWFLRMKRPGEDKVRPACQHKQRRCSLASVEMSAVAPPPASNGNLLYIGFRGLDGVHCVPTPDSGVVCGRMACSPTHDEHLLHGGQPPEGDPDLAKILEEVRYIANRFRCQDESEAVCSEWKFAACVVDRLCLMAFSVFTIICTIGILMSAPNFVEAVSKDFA

Row | Structure (SMILES) | pKi (human α7 nAChR) | pKi (α4β2 nAChR; Table 2, read-out: Ki α4β2) | pKi (α3β4 nAChR) | further results
1 | c1cncc(C[C@@H]2[C@@H](Oc3cnc(-c4ccc5[nH]ccc5c4)cn3)C3CCN2CC3)c1 (racemic) [Compound 9, trans-5-[5-[2-(3-Pyridylmethyl)quinuclidin-3-yl]oxypyrazin-2-yl]-1H-indole] | 6.62 | – | – | –
2 | c1cncc(C[C@@H]2[C@@H](Oc3ccc(-c4ccc5[nH]ccc5c4)nn3)C3CCN2CC3)c1 (racemic) [Compound 11, trans-5-[6-[2-(3-Pyridylmethyl)quinuclidin-3-yl]oxypyridazin-3-yl]-1H-indole] | 8.85 | – | – | pKi (α4β2 nAChR): 7.14
3 | c1cncc(C[C@@H]2[C@@H](Oc3nnc(-c4ccc5[nH]ccc5c4)s3)C3CCN2CC3)c1 (racemic) [Compound 16, trans-2-(1H-Indol-5-yl)-5-[2-(3-pyridylmethyl)quinuclidin-3-yl]oxy-1,3,4-thiadiazole] | – | 6.66 | 6.36 | –
4 | c1ccc(-c2nnc(O[C@H]3C4CCN(CC4)[C@@H]3Cc3cccnc3)s2)cc1 (racemic) [Compound 20, trans-2-Phenyl-5-[2-(3-pyridylmethyl)quinuclidin-3-yl]oxy-1,3,4-thiadiazole] | 6.49 | – | – | –
5 | c1cncc(C[C@@H]2[C@H](Oc3ccc(-c4ccc5[nH]ccc5c4)nn3)C3CCN2CC3)c1 (relative stereo) [Compound 7, cis-5-[6-[2-(3-Pyridylmethyl)quinuclidin-3-yl]oxypyridazin-3-yl]-1H-indole] | 7.23 | – | 6.70 | nAChR subtype preference / selectivity (human α7 nAChR): preferably binds to the α4β2 nAChR
6 | c1cncc(C[C@@H]2[C@@H](Oc3cnc(-c4ccc5[nH]ccc5c4)cn3)C3CCN2CC3)c1 (relative stereo) [Compound 9, trans-5-[5-[2-(3-Pyridylmethyl)quinuclidin-3-yl]oxypyrazin-2-yl]-1H-indole] | – | 6.64 | 6.40 | –
7 | c1cncc(C[C@@H]2[C@@H](Oc3ccc4ccccc4n3)C3CCN2CC3)c1 (relative stereo) [Compound 18, trans-2-[2-(3-Pyridylmethyl)quinuclidin-3-yl]oxyquinoline] | 5.53 | – | – | –
8 | c1ccc(-c2ccc(O[C@H]3C4CCN(CC4)[C@@H]3Cc3cccnc3)nn2)cc1 (relative stereo) [Compound 19, trans-3-(6-Phenylpyridazin-3-yl)oxy-2-(3-pyridylmethyl) quinuclidine] | 7.00 | – | – | –
9 | c1ccc(-c2nnc(O[C@H]3C4CCN(CC4)[C@@H]3Cc3cccnc3)s2)cc1 (relative stereo) [Compound 20, trans-2-Phenyl-5-[2-(3-pyridylmethyl)quinuclidin-3-yl]oxy-1,3,4-thiadiazole] | 6.49 | – | – | –
10 | c1cncc(C[C@@H]2[C@@H](Oc3ccc(-c4ccc5[nH]ccc5c4)nn3)C3CCN2CC3)c1 [2R,3S-11, (2R,3S)-5-[6-[2-(3-Pyridylmethyl)quinuclidin-3-yl]oxypyridazin-3-yl]-1H-indole] | – | 6.14 | 5.92 | pKi (human α7 nAChR; Table 2, read-out: Ki α7): 7.47
11 | c1cncc(C[C@H]2[C@H](Oc3ccc(-c4ccc5[nH]ccc5c4)nn3)C3CCN2CC3)c1 [2S,3R-11, (2S,3R)-5-[6-[2-(3-Pyridylmethyl)quinuclidin-3-yl]oxypyridazin-3-yl]-1H-indole] | – | 7.11 | 6.11 | pKi (human α7 nAChR; Table 2, read-out: Ki α7): 9.00; nAChR subtype preference / selectivity (human α7 nAChR): optimal and selective interaction with α7 nAChR
12 | c1cncc(C[C@@H]2[C@@H](Oc3ccc(-c4ccc5[nH]ccc5c4)cn3)C3CCN2CC3)c1 [Compound 5, trans-5-[6-[2-(3-Pyridylmethyl)quinuclidin-3-yl]oxy-3-pyridyl]-1H-indole] | 7.24 | – | – | –
13 | c1cncc(C[C@@H]2[C@@H](Oc3ccc(-c4ccc5[nH]ccc5c4)nn3)C3CCN2CC3)c1 [Compound 11, trans-5-[6-[2-(3-Pyridylmethyl)quinuclidin-3-yl]oxypyridazin-3-yl]-1H-indole] | 9.00 | – | – | –
14 | Nc1nc2ccc(-c3ccc(OC4C5CCN(CC5)C4Cc4cccnc4)nn3)cc2s1 (stereo not drawn) [Compound 12, trans-6-[6-[2-(3-Pyridylmethyl)quinuclidin-3-yl]oxypyridazin-3-yl]-1,3-benzothiazol-2-amine] | – | 7.30 | 5.97 | pKi (human α7 nAChR; [3]): 7.72; pKi (human α7 nAChR; Table 2, read-out: Ki α7): 7.73
15 | c1cncc(C[C@@H]2[C@@H](Oc3nnc(-c4ccc5[nH]ccc5c4)s3)C3CCN2CC3)c1 [Compound 16, trans-2-(1H-Indol-5-yl)-5-[2-(3-pyridylmethyl)quinuclidin-3-yl]oxy-1,3,4-thiadiazole] | – | – | – | pKi (human α7 nAChR; [3]): 7.96; citric acid-induced cough counts compared with air control ([1]; dry powder insufflated, 1 mg/kg, p=0.0004): significantly reduced; citric acid-induced cough counts compared with air control ([1]; dry powder insufflated, 2 mg/kg, p=0.0042): significantly reduced; citric acid-induced cough counts compared with air control ([1]; nebulised, 0.4 mg/kg, 58 min exposure, p=0.0023): significantly reduced; citric acid-induced cough counts compared with air control ([1]; orally administered, 9.5 mg/kg, p<0.05): significantly reduced; cough frequency compared to negative control (saline) ([1]; prophylactic intraperitoneal treatment at 1, 3 and 9.5 mg/kg, FIG. 8): suppression of cough frequency; number of coughs (citric acid-induced cough counts) ([2]; i.p. 1 mg/kg, p<0.0001 vs saline control (17 coughs)): 5; cough incubation period ([2]; i.p. 1 mg/kg, p<0.001 vs saline control (206 sec)): 548 s; number of coughs (citric acid-induced cough counts) ([2]; i.p. 3 mg/kg, p<0.001 vs saline control (17 coughs)): 5; cough incubation period ([2]; i.p. 3 mg/kg, p<0.01 vs saline control (206 sec)): 455 s; number of coughs (citric acid-induced cough counts) ([2]; i.p. 9.5 mg/kg, p<0.01 vs saline control (17 coughs)): 7; cough incubation period ([2]; i.p. 9.5 mg/kg, p<0.05 vs saline control (206 sec)): 489 s
